In patent US20090118263A1, “Novel Adenine Compound” (priority 2005, published 2009) one finds EC50 data, which are given here for twelve compounds.

The assay concerns the target T1, human TLR7 (Homo sapiens, UniProt Q9NYK1).
T1 construct: expressed in transfected cells; host or cells: HEK293 (hTLR7/seap-293), stably transfected with the TLR7 plasmid and the NF-kB-SEAP reporter plasmid
T1 sequence (Q9NYK1 27-1049): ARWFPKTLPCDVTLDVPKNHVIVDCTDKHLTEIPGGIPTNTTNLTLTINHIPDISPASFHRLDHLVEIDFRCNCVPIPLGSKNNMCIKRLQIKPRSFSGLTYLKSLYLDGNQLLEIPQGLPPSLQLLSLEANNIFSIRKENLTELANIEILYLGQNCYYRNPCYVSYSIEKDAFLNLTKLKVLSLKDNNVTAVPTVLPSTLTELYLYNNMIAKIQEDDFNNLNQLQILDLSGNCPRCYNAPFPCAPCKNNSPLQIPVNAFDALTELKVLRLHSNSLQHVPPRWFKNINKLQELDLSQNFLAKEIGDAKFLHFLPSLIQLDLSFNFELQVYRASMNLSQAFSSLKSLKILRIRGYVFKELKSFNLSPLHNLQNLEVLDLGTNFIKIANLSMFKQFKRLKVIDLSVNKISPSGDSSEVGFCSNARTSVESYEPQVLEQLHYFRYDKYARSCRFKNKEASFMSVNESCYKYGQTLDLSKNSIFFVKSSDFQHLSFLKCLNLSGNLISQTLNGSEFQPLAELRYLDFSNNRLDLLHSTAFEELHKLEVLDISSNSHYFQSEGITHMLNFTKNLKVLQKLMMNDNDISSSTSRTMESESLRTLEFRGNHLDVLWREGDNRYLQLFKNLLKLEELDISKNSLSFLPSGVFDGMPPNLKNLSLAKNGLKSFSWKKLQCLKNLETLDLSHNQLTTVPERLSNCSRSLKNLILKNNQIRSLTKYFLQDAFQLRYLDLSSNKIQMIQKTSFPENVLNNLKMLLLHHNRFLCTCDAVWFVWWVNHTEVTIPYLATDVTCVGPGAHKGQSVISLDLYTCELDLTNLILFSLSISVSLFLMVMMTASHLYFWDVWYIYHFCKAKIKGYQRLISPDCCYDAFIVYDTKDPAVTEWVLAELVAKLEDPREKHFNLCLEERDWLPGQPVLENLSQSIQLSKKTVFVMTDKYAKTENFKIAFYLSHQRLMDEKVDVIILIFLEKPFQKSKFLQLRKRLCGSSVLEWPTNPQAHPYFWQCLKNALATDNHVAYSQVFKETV
The experiment in a line: Human TLR7 reporter assay (NF-kB-SEAP in HEK293 cells). The assay is classed as cell-based. The following applies: HEK293 cells stably carrying human TLR7 plasmid and NF-kB-SEAP reporter plasmid; 20 hours culture; 1 nM-10 μM; absorbance 405 nm; read-out: Human TLR7 binding activity (EC50). The protocol:
Human TLR7 Reporter Assay
HEK293 cells in which human TLR7 or rat TLR7 plasmid and reporter plasmid (NF-kB-SEAP) are stably introduced are dispersed in DMEM broth (10% FBS, 1% NEAA, 10 ug/mL blastocidin S HCl, 100 ug/mL Zeocin), and were seeded to 96 well plate per 90 μl/well (hTLR7/seap-293:20000 cells/well, rTLR7/seap-293:25000 cells/well).
Test compound (DMSO stock solution (2 μl) was diluted with the broth (200 μl) by 100 times) was added to the seeded cells to a 96 well plate (10 μl/well) (final concentration; 1 nM-10 μM, common ratio). After stirring by tapping side of the plate, the cells were cultured in a CO2 incubator for 20 hours. A substrate (50 μl/well) for reporter assay (substrate for SEAP, pNPP) was added to cells stimulated by test sample. Ten minutes after adding the substrate, the reaction quenching solution (4N NaOH) was added by 50 μl/well to cease enzymatic reaction. Sealing a top seal A on the plate, the absorbance was measured by a micro plate reader (405 nm).
(Reporter assays use an easily measured gene product as a stand-in for the process of interest.)

The structures appear in SMILES notation.

In general, EC50 refers to the concentration at which the effect is half-maximal. Regarding `CCCCOc1nc(N)c2[nH]c(=O)n(Cc3ccc(OCCCCN(C)Cc4cccc(CC(=O)O)c4)nc3)c2n1` [Example 16, 2-Butoxy-7,8-dihydro-9-[6-(4-[{N-[3-(carboxymethyl)benzyl]-N-methyl}amino]butoxy)pyridin-3-ylmethyl]-8-oxoadenine], the concentration giving a half-maximal response (EC50) was 29.6 nM.

With `CCCCOc1nc(N)c2[nH]c(=O)n(Cc3ccc(OCCCCNCc4cccc(CC(=O)OC)c4)nc3)c2n1` [Example 12, 2-Butoxy-7,8-dihydro-9-{6-[4-(3-methoxycarbonylmethylbenzyl)aminobutoxy]pyridin-3-ylmethyl}-8-oxoadenine], the EC50 worked out at 9.1 nM.

With `CCCCOc1nc(N)c2[nH]c(=O)n(Cc3ccc(CN(CCCN4CCOCC4)Cc4cccc(CC(=O)O)c4)cc3)c2n1` [Example 8, 2-Butoxy-7,8-dihydro-9-(4-{N-[3-(hydroxycarbonylmethyl)benzyl]-N-(3-morpholin-4-ylpropyl)aminomethyl}benzyl)-8-oxoadenine], the EC50 was determined as 253 nM.

Take `CCCCOc1nc(N)c2[nH]c(=O)n(Cc3ccc(OCCCCN(C)Cc4cccc(CC(=O)OC)c4)nc3)c2n1` [Example 15, 2-Butoxy-7,8-dihydro-9-[6-(4-[{N-methyl-N-[3-(methoxycarbonylmethyl)benzyl]}amino]butoxy)pyridin-3-ylmethyl]-8-oxoadenine]: the EC50 came out at 9.4 nM.

As to `CCCCOc1nc(N)c2[nH]c(=O)n(Cc3ccc(CN(CCCO)Cc4cccc(CC(=O)OC)c4)cc3)c2n1` [Example 5, 2-Butoxy-7,8-dihydro-9-(4-{N-(3-hydroxypropyl)-N-[3-(methoxycarbonylmethyl)benzyl]aminomethyl}benzyl)-8-oxoadenine], the EC50 is 40.8 nM.

As to `CCCCOc1nc(N)c2[nH]c(=O)n(Cc3ccc(CN(C)CCOc4cccc(CC(=O)OC)c4)cc3)c2n1` [Example 9, 2-Butoxy-7,8-dihydro-9-[4-(N-{2-[3-(methoxycarbonylmethyl)phenoxy]ethyl}-N-methylaminomethyl)benzyl]-8-oxoadenine], the EC50 came to 28.3 nM.

For `CCCCOc1nc(N)c2[nH]c(=O)n(Cc3ccc(OCCCN(C)Cc4cccc(CC(=O)OC)c4)cc3)c2n1` [Example 1, 2-Butoxy-7,8-dihydro-9-[(3-[{N-methyl-N-[3-(methoxycarbonylmethyl)benzyl]}amino]propoxy)benzyl]-8-oxoadenine], the EC50 is 26 nM.

On to `COCCOc1nc(N)c2[nH]c(=O)n(Cc3ccc(CN(C)CCOc4cccc(CC(=O)OC)c4)cc3)c2n1` [Example 19, 7,8-Dihydro-9-[4-{N-[2-(3-methoxycarbonylmethylphenyl-1-yl)oxyethyl]-N-methylamino}methylbenzyl]-2-(2-methoxyethoxy)-8-oxoadenine], for which the EC50 stood at 51.5 nM.

For `CCCCOc1nc(N)c2[nH]c(=O)n(Cc3ccc(OCCCNCc4cccc(CC(=O)OC)c4)cc3)c2n1` [Example 3, 2-Butoxy-7,8-dihydro-9-([3-{N-[3-(methoxycarbonylmethyl)benzyl]amino}propoxy]benzyl)-8-oxoadenine], the EC50 came out at 20.4 nM.

For the compound `CCCCOc1nc(N)c2[nH]c(=O)n(Cc3ccc(CN(C)CCOc4cc(CC(=O)OC)ccc4OC)cc3)c2n1` [Example 11, 2-Butoxy-7,8-dihydro-9-[4-(N-{2-[2-methoxy-5-(methoxycarbonylmethyl)phenoxy]ethyl}-N-methylaminomethyl)benzyl]-8-oxoadenine], the EC50 was determined as 21 nM.

As to `CCCCOc1nc(N)c2[nH]c(=O)n(Cc3ccc(CN(CCCN4CCOCC4)Cc4cccc(CC(=O)OC)c4)cc3)c2n1` [Example 7, 2-Butoxy-7,8-dihydro-9-(4-{N-[3-(methoxycarbonylmethyl)benzyl]-N-(3-morpholin-4-ylpropyl)aminomethyl}benzyl)-8-oxoadenine], the EC50 was 24.1 nM.

Consider `CCCCOc1nc(N)c2[nH]c(=O)n(Cc3ccc(OCCCCN(CCCN4CCOCC4)Cc4cccc(CC(=O)OC)c4)nc3)c2n1` [Example 17, 2-Butoxy-7,8-dihydro-9-(6-[4-{[N-(3-methoxycarbonylmethylbenzyl)-N-(3-morpholinopropyl)]amino}butoxy]pyridin-3-ylmethyl)-8-oxoadenine], for which the 50% effective concentration (EC50) was determined as 20.7 nM.
